Test results published in ChEMBL document CHEMBL5046249, “Synthesis, biological evaluation and cellular localization study of fluorescent derivatives of Jiyuan Oridonin A” (Eur J Med Chem, 2022).

Columns and labels:
Type in all cases: functional, cell-based
[1] = tested on: TE-1; assay: Antiproliferative activity against human TE-1 cells assessed as inhibition of cell growth measured after 72 hrs by SRB assay; details: TE-1, 72 h
[2] = tested on: SW1990; assay: Antiproliferative activity against human SW1990 cells assessed as inhibition of cell growth measured after 72 hrs by SRB assay; details: SW1990, 72 h
[3] = tested on: HGC-27; assay: Antiproliferative activity against human HGC-27 cells assessed as inhibition of cell growth measured after 72 hrs by SRB assay; details: HGC-27, 72 h
[4] = tested on: MGC-803; assay: Antiproliferative activity against human MGC-803 cells assessed as inhibition of cell growth measured after 72 hrs by SRB assay; details: MGC-803, 72 h
[5] = tested on: PC-3; assay: Antiproliferative activity against human PC-3 cells assessed as inhibition of cell growth measured after 72 hrs by SRB assay; details: PC-3, 72 h

Compound | IC50 [2] | IC50 [4] | IC50 [5] | IC50 [1] | IC50 [3]
C=C1C(=O)[C@]23[C@H](O)[C@H]1C[C@H](O)[C@H]2[C@]12CCCC(C)(C)[C@H]1C[C@H]3O[C@H]2OCCCCCCc1cn(CCCCCCN2C(=O)c3cccc4c(N5CCCCC5)ccc(c34)C2=O)nn1 | 4880 nM | 3650 nM | 3000 nM | 4050 nM | 5880 nM
C=C1C(=O)[C@]23[C@H](O)[C@H]1C[C@H](O)[C@H]2[C@]12CCCC(C)(C)[C@H]1C[C@H]3O[C@H]2OCCCCCCc1cn(CCOCCOCCN2C(=O)c3cccc4c(N5CCCCC5)ccc(c34)C2=O)nn1 | 2820 nM | 3010 nM | 970 nM | 1530 nM | 1880 nM
C=C1C(=O)[C@]23[C@H](O)[C@H]1C[C@H](O)[C@H]2[C@]12CCCC(C)(C)[C@H]1C[C@H]3O[C@H]2OCCCCCc1cn(CCOCCN2C(=O)c3cccc4c(N5CCCCC5)ccc(c34)C2=O)nn1 | 3360 nM | 2780 nM | 870 nM | 2370 nM | 1640 nM
C=C1C(=O)[C@]23[C@H](O)[C@H]1C[C@H](O)[C@H]2[C@]12CCCC(C)(C)[C@H]1C[C@H]3O[C@H]2OCCc1cn(CCOCCOCCN2C(=O)c3cccc4c(N5CCCCC5)ccc(c34)C2=O)nn1 | 2090 nM | 3310 nM | 970 nM | 1830 nM | 3540 nM
C=C1C(=O)[C@]23[C@H](O)[C@H]1C[C@H](O)[C@H]2[C@]12CCCC(C)(C)[C@H]1C[C@H]3O[C@H]2OCCCc1cn(CCCCCCN2C(=O)c3cccc4c(N5CCCCC5)ccc(c34)C2=O)nn1 | 1200 nM | 910 nM | 740 nM | 2970 nM | 3320 nM
C=C1C(=O)[C@]23[C@H](O)[C@H]1C[C@H](O)[C@H]2[C@]12CCCC(C)(C)[C@H]1C[C@H]3O[C@H]2OCCCCCc1cn(CCCCCN2C(=O)c3cccc4c(N5CCCCC5)ccc(c34)C2=O)nn1 | 2790 nM | 2440 nM | 780 nM | 4670 nM | 1670 nM
C=C1C(=O)[C@]23[C@H](O)[C@H]1C[C@H](O)[C@H]2[C@]12CCCC(C)(C)[C@H]1C[C@H]3O[C@H]2OCCCCCc1cn(CCOCCOCCN2C(=O)c3cccc4c(N5CCCCC5)ccc(c34)C2=O)nn1 | 2150 nM | 2640 nM | 1210 nM | 1860 nM | 1800 nM
C#CCCCCO[C@@H]1O[C@@H]2C[C@@H]3C(C)(C)CCC[C@]13[C@@H]1[C@@H](O)C[C@H]3C(=C)C(=O)[C@@]21[C@@H]3O | 3340 nM | 2550 nM | 4320 nM | 5670 nM | 3000 nM
C=C1C(=O)[C@]23[C@H](O)[C@H]1C[C@H](O)[C@H]2[C@]12CCCC(C)(C)[C@H]1C[C@H]3O[C@H]2OCCCCCCc1cn(CCCCCN2C(=O)c3cccc4c(N5CCCCC5)ccc(c34)C2=O)nn1 | 4590 nM | 4180 nM | 3890 nM | 3450 nM | 2280 nM
C=C1C(=O)[C@]23[C@H](O)[C@H]1C[C@H](O)[C@H]2[C@]12CCCC(C)(C)[C@H]1C[C@H]3O[C@H]2OCCCCc1cn(CCCN2C(=O)c3cccc4c(N5CCCCC5)ccc(c34)C2=O)nn1 | 3310 nM | 1200 nM | 770 nM | 2640 nM | 6130 nM
C=C1C(=O)[C@]23[C@H](O)[C@H]1C[C@H](O)[C@H]2[C@]12CCCC(C)(C)[C@H]1C[C@H]3O[C@H]2OCCc1cn(CCOCCN2C(=O)c3cccc4c(N5CCCCC5)ccc(c34)C2=O)nn1 | 1180 nM | 2130 nM | 990 nM | 1310 nM | 4140 nM
C=C1C(=O)[C@]23[C@H](O)[C@H]1C[C@H](O)[C@H]2[C@]12CCCC(C)(C)[C@H]1C[C@H]3O[C@H]2OCCCCCCc1cn(CCN2C(=O)c3cccc4c(N5CCCCC5)ccc(c34)C2=O)nn1 | 2880 nM | 3250 nM | 1600 nM | 4660 nM | 3740 nM
[N-]=[N+]=NCCN1C(=O)c2cccc3c(N4CCCCC4)ccc(c23)C1=O | > 32000 nM | > 32000 nM | > 32000 nM | > 32000 nM | > 32000 nM

The next lines start with results.

IC50 [2] | IC50 [4] | IC50 [5] | Compound | IC50 [1] | IC50 [3]
3220 nM | 2460 nM | 5370 nM | C#CCCCO[C@@H]1O[C@@H]2C[C@@H]3C(C)(C)CCC[C@]13[C@@H]1[C@@H](O)C[C@H]3C(=C)C(=O)[C@@]21[C@@H]3O | 4230 nM | 2680 nM
4350 nM | 3130 nM | 1040 nM | C=C1C(=O)[C@]23[C@H](O)[C@H]1C[C@H](O)[C@H]2[C@]12CCCC(C)(C)[C@H]1C[C@H]3O[C@H]2OCCCCc1cn(CCOCCOCCOCCN2C(=O)c3cccc4c(N5CCCCC5)ccc(c34)C2=O)nn1 | 2430 nM | 2490 nM
870 nM | 1270 nM | 1240 nM | C=C1C(=O)[C@]23[C@H](O)[C@H]1C[C@H](O)[C@H]2[C@]12CCCC(C)(C)[C@H]1C[C@H]3O[C@H]2OCCCc1cn(CCCCN2C(=O)c3cccc4c(N5CCCCC5)ccc(c34)C2=O)nn1 | 2080 nM | 2240 nM
970 nM | 1970 nM | 800 nM | C=C1C(=O)[C@]23[C@H](O)[C@H]1C[C@H](O)[C@H]2[C@]12CCCC(C)(C)[C@H]1C[C@H]3O[C@H]2OCCc1cn(CCCN2C(=O)c3cccc4c(N5CCCCC5)ccc(c34)C2=O)nn1 | 3040 nM | 2290 nM
1380 nM | 1530 nM | 1670 nM | C=C1C(=O)[C@]23[C@H](O)[C@H]1C[C@H](O)[C@H]2[C@]12CCCC(C)(C)[C@H]1C[C@H]3O[C@H]2OCCCc1cn(CCCCCN2C(=O)c3cccc4c(N5CCCCC5)ccc(c34)C2=O)nn1 | 3940 nM | 3310 nM
2250 nM | 3210 nM | 1240 nM | C=C1C(=O)[C@]23[C@H](O)[C@H]1C[C@H](O)[C@H]2[C@]12CCCC(C)(C)[C@H]1C[C@H]3O[C@H]2OCCCCc1cn(CCOCCN2C(=O)c3cccc4c(N5CCCCC5)ccc(c34)C2=O)nn1 | 2700 nM | 1950 nM
1940 nM | 3450 nM | 2170 nM | C=C1C(=O)[C@]23[C@H](O)[C@H]1C[C@H](O)[C@H]2[C@]12CCCC(C)(C)[C@H]1C[C@H]3O[C@H]2OCCCc1cn(CCOCCOCCN2C(=O)c3cccc4c(N5CCCCC5)ccc(c34)C2=O)nn1 | 3020 nM | 1250 nM
> 32000 nM | > 32000 nM | > 32000 nM | [N-]=[N+]=NCCCCCCN1C(=O)c2cccc3c(N4CCCCC4)ccc(c23)C1=O | > 32000 nM | > 32000 nM
2690 nM | 3070 nM | 1270 nM | C=C1C(=O)[C@]23[C@H](O)[C@H]1C[C@H](O)[C@H]2[C@]12CCCC(C)(C)[C@H]1C[C@H]3O[C@H]2OCCCCc1cn(CCCCCN2C(=O)c3cccc4c(N5CCCCC5)ccc(c34)C2=O)nn1 | 6380 nM | 1950 nM
1640 nM | 2180 nM | 810 nM | C=C1C(=O)[C@]23[C@H](O)[C@H]1C[C@H](O)[C@H]2[C@]12CCCC(C)(C)[C@H]1C[C@H]3O[C@H]2OCCCc1cn(CCOCCOCCOCCN2C(=O)c3cccc4c(N5CCCCC5)ccc(c34)C2=O)nn1 | 1440 nM | 3110 nM
880 nM | 960 nM | 2500 nM | C=C1C(=O)[C@]23[C@H](O)[C@H]1C[C@H](O)[C@H]2[C@]12CCCC(C)(C)[C@H]1C[C@H]3O[C@H]2OCCc1cn(CCN2C(=O)c3cccc4c(N5CCCCC5)ccc(c34)C2=O)nn1 | 3340 nM | 2640 nM
1410 nM | 1570 nM | 790 nM | C=C1C(=O)[C@]23[C@H](O)[C@H]1C[C@H](O)[C@H]2[C@]12CCCC(C)(C)[C@H]1C[C@H]3O[C@H]2OCCc1cn(CCCCCCN2C(=O)c3cccc4c(N5CCCCC5)ccc(c34)C2=O)nn1 | 4450 nM | 3090 nM
> 32000 nM | > 32000 nM | > 32000 nM | [N-]=[N+]=NCCOCCN1C(=O)c2cccc3c(N4CCCCC4)ccc(c23)C1=O | > 32000 nM | > 32000 nM
1370 nM | 1210 nM | 1440 nM | C=C1C(=O)[C@]23[C@H](O)[C@H]1C[C@H](O)[C@H]2[C@]12CCCC(C)(C)[C@H]1C[C@H]3O[C@H]2OCCCCc1cn(CCN2C(=O)c3cccc4c(N5CCCCC5)ccc(c34)C2=O)nn1 | 2250 nM | 6230 nM
4650 nM | 2720 nM | 1340 nM | C=C1C(=O)[C@]23[C@H](O)[C@H]1C[C@H](O)[C@H]2[C@]12CCCC(C)(C)[C@H]1C[C@H]3O[C@H]2OCCCCCc1cn(CCCCN2C(=O)c3cccc4c(N5CCCCC5)ccc(c34)C2=O)nn1 | 5130 nM | 3010 nM
3260 nM | 1970 nM | 2880 nM | C#CCCCCCCO[C@@H]1O[C@@H]2C[C@@H]3C(C)(C)CCC[C@]13[C@@H]1[C@@H](O)C[C@H]3C(=C)C(=O)[C@@]21[C@@H]3O | 3180 nM | 3010 nM
